In ChEMBL document CHEMBL4190339, “Design, synthesis and preliminary biological evaluation of new [1,2,3]triazolo[4,5-d]pyrimidine/thiourea hybrids as antiproliferative agents” (Eur J Med Chem, 2017) one finds IC50 data, which are given here for nine compounds.

The test system of one assay is NCI-H1650. The assay can be described thus: Antiproliferative activity against human NCI-H1650 cells after 48 hrs by MTT assay. In kind it is functional, cell-based. As to conditions: NCI-H1650, 48 h. In general terms: Tetrazolium dyes change colour on reduction, which living cells bring about.
The next assay deals with A549. The assay can be described thus: Antiproliferative activity against human A549 cells after 48 hrs by MTT assay. As to conditions: A549, 48 h. It counts as functional, cell-based.
The test system of the next assay is GES1. The assay can be described thus: Antiproliferative activity against human GES-1 cells after 48 hrs by MTT assay. The settings on record: GES1, 48 h. It counts as cell-based.
In the next assay the test system is MGC-803. The experiment in a line: Antiproliferative activity against human MGC803 cells after 48 hrs by MTT assay. In kind it is functional, cell-based. The settings on record: MGC-803, 48 h.
In another assay the test system is ECa-109 cell line. The experiment in a line: Antiproliferative activity against human EC109 cells after 48 hrs by MTT assay. The settings on record: ECa-109, 48 h. In kind it is functional, cell-based.
In the next assay the test system is MKN-45. The experiment in a line: Antiproliferative activity against human MKN45 cells after 48 hrs by MTT assay. In kind it is functional, cell-based. The settings on record: MKN-45, 48 h.

Usually pIC50 stands for the negative decadic logarithm of the IC50, by convention in mol/L. A high value points to a low IC50.

pIC50: −log10 of the molar value.

Take `CCCSc1nc(NCCNC(=S)Nc2ccccn2)c2nnn(CCc3ccccc3)c2n1`: the pIC50 in the assay on NCI-H1650 was 5.12; with A549 it was 5.23; in the assay with GES1 it was 4.64; in the assay on MGC-803, 4.94; in the assay with ECa-109 cell line, 5.27; in the assay on MKN-45, 5.09.

In the case of `O=c1[nH]cc(F)c(=O)[nH]1` [FLUOROURACIL], in the assay with GES1, the pIC50 is 5.04.

`CCCSc1nc(NCCNC(=S)Nc2cccnc2)c2nnn(CC(C)C)c2n1`: the pIC50 is 4.82 with NCI-H1650; 4.98 in the assay with A549; 4.32 in the assay on GES1; 4.60 with MGC-803; less than 4.19 in the assay with ECa-109 cell line; 4.72 in the assay on MKN-45.

Take `CCCSc1nc(NCCNC(=S)Nc2cccc3ccccc23)c2nnn(CCc3ccccc3)c2n1`: the negative-log IC50 (pIC50) is 5.19 with NCI-H1650; 4.39 with A549; less than 4.19 with GES1; less than 4.19 in the assay on MGC-803; less than 4.19 in the assay on ECa-109 cell line; 5.01 in the assay with MKN-45.

On to `CCCSc1nc(NCCNC(=S)Nc2cccnc2)c2nnn(CCO)c2n1`, for which the pIC50 in the assay on NCI-H1650 is 4.34; with A549, less than 4.19; in the assay on GES1 it was less than 4.19; in the assay on MGC-803, less than 4.19; in the assay on ECa-109 cell line, 4.74; in the assay with MKN-45, 4.60.

As to `CCCSc1nc(NCCNC(=S)Nc2cccc(Cl)c2)c2nnn(CCc3ccccc3)c2n1`, the pIC50 was 4.77 in the assay with NCI-H1650; 4.80 in the assay on A549; 4.22 in the assay on GES1; 4.57 in the assay on MGC-803; 4.93 in the assay on ECa-109 cell line; 4.52 in the assay with MKN-45.

Consider `CCCSc1nc(NCCNC(=S)Nc2cccc(C(F)(F)F)c2)c2nnn(CCc3ccccc3)c2n1`, for which the pIC50 in the assay with NCI-H1650 is 4.62; in the assay with A549 it was 4.77; in the assay with GES1, 4.63; in the assay with MGC-803 it was 4.47; in the assay on ECa-109 cell line, 4.75; with MKN-45 it was 4.45.

As for `CCCSc1nc(NCCNC(=S)NCc2ccccc2)c2nnn(CCc3ccccc3)c2n1`, the pIC50 was less than 4.19 with NCI-H1650; less than 4.19 in the assay with A549; 4.29 with GES1; 4.76 in the assay with MGC-803; 4.86 with ECa-109 cell line; 4.64 in the assay on MKN-45.

`CCCSc1nc(NCCNC(=S)Nc2cccnc2)c2nnn(Cc3ccccc3)c2n1`: the pIC50 with NCI-H1650 was 5.02; in the assay on A549 it was 4.92; in the assay on GES1 it was 4.66; in the assay with MGC-803 it was 4.62; in the assay on ECa-109 cell line, 4.96; with MKN-45, 4.82.
